Earlier results as cited in patent US8133194B2 (Henry Ford Health System, priority 2006, dated 2012).

Experiments:
[1] = under normal conditions, equal to the renal plasma flow
[2] = ICU patients
[3] = as stated for pre-filter fluid pH

Compound	PAH clearance [1]	K(b) liver clearance of citrate [2] [L/min]	pKa3 [3]
Nc1ccc(C(=O)NCC(=O)O)cc1 [PAH, para-amino-hippuric acid]	up to 0.6 L/minute		
O=C(O)CC(O)(CC(=O)O)C(=O)O [Citrate]		0.2 to 0.5	6.3
